{"source": "patent US20030220524A1", "about": "“Sulfur containing compounds” (priority 2000, published 2003)", "key": {"Aspergillus flavus": {"system": "Aspergillus flavus", "test": "Antifungal paper disk test, diameter of clear zone", "type": "cell-based", "details": "for zone of inhibition at 100 µg/disc: read-out: Diameter (mm) of clear Zone A. flavus", "description": "(§1) Sulfur compounds were tested for antifungal activity against pure cultures of Aspergillus niger and Aspergillus flavus supplied by Ward's Natural Science Ltd (St. Catharines, Ontario, Canada). They were maintained on Sabouraud Dextrose Agar.\n(§2) For the test, 6 agar plugs (5 mm diameter) were cut from a 5-8 day old colony and homogenized in distilled, sterilized water (2 ml). A portion of this suspension (0.5 ml) was transferred aseptically to a Petri plate with Sabouraud Dextrose Agar (15 ml) and spread evenly over the entire surface. […] Each test compound was applied to the disks as a solution (50 mg compound/10 ml acetone). Control disks were treated with neat acetone (20 μl). Test plates with fungal homogenates and disks were incubated at 18-20° C. for 2 days. For each test four replicate plates were used. The diameter of the clear zone surrounding the disk was taken as the indicator of antifungal activity."}, "Aspergillus niger": {"system": "Aspergillus niger", "test": "Antifungal paper disk test, diameter of clear zone", "type": "cell-based", "details": "for zone of inhibition at 100 µg/disc: read-out: Diameter (mm) of clear Zone A. niger", "description": "as §1, §2"}, "leukemic cells [1]": {"system": "leukemic cells", "test": "Trypan blue exclusion in combination with MTT activity", "type": "cell-based, human", "details": "in words", "description": "Adherent cells were seeded at 67×10^3 cells/mL in a 96 well plate (Falcon, Mississauga, Ontario) the day prior to exposure to compound. Suspension cells were seeded at 27×10^4 cells/mL in a 96 well plate the day of exposure to compound. Mononucleated, T-cell depleted normal bone marrow cells were seeded at 67×10^4 cells/mL in a 96 well plate the day of exposure to compound. Compounds and solvent control were added to cells and assayed in triplicate or sextuplet. Following 48 h of incubation at 37° C. with 5% CO2, 40 μL of a 5 mg/mL solution of 3-[4,5-dimethylthiazol-2-yl]-2,5-diphenyltetrazolium bromide (MTT) substrate (Sigma) in Dulbecco's phosphate-buffered saline (D-PBS) was added. After 4 h of incubation at 37° C. with 5% CO2, the resulting violet formazan precipitate was solubilized by the addition of 80 μL of a 0.01 M HCI, 10% sodium dodecyl sulfate (SDS; Sigma) solution overnight at 37° C. with 5% CO2. The plates were then analyzed using the BioRad Benchmark Microplate Reader (BioRad Laboratories, Hercules, Calif.) at 570 nm to determine the optical density of the samples. MTT data was analyzed using Prism 3.0 (GraphPad Software, Inc., San Diego, Calif.) by the Chou-Talalay method. MTT graphs shown are a representative experiment.\nLeukemic cells were seeded in a 24-well plate (Nunc, Naperville, Ill.) at 25×10^4 cells/mL. Cells were then exposed in triplicate to solvent control or the approximate MTT50 concentration of compounds B, C, F, G or H at 10 μg/mL, or I at 5 μg/mL. The final solvent volume was 2.4 μL/mL of media for trypan blue exclusion assay. The compound was replenished after 48 h of treatment. Cell counts were evaluated using a 1:1 dilution of cell suspension in trypan blue (Gibco-BRL, Mississauga, Ontario, Canada). Viable and nonviable cells were counted using a hemocytometer. Cells which excluded trypan blue were counted as viable whereas stained cells were counted as nonviable. Trypan blue exclusion graphs shown are a representative experiment.\nLeukemic cells were seeded in a 24-well plate (Nunc, Naperville, Ill.) at 25×10^4 cells/mL. Cells were then exposed in triplicate to solvent control or the approximate MTT50 concentration of compounds F (10 μg/mL), G (10 μg/mL) or 1 (5 μg/mL). The final solvent volume was 2.4 μL/mL of media for trypan blue exclusion assay. The compound was replenished after 48 h of treatment. Cell counts were evaluated using a 1:1 dilution of cell suspension in trypan blue (Gibco-BRL, Mississauga, Ontario, Canada). Viable and nonviable cells were counted using a hemocytometer. Cells which excluded trypan blue were counted as viable whereas stained cells were counted as nonviable. Trypan blue exclusion graphs shown are a representative experiment."}, "leukemic cells [2]": {"system": "leukemic cells", "test": "Cell cycle and apoptosis by fixed PI and TUNEL", "type": "cell-based, human", "details": "in words", "description": "Adherent cell lines were plated at 35×10^4 cells/60 cm^2 dish the day before exposure to compound. Suspension cells were seeded at 25×10^4 cells/mL in a 6 well dish (Falcon) the day of exposure to compound. Mononucleated, T-cell depleted normal bone marrow cells were seeded at 50×10^4 cells/mL in a 6 well dish the day of exposure to compound. Cells were exposed to solvent control or approximate MTT50 and MTT30 concentrations of the compound. After 48 h of exposure to the compound, cells were harvested, fixed in 80% ethanol for 1 h on ice and labeled with 50 μg/mL propidium iodide (Sigma). Approximately 10^6 cells were analyzed using a XL-MCL flow cytometer (Coulter Corporation, Miami, Fla.) and a FACScalibar cytometer (Becton Dickinson, San Jose, Calif.). Profiles shown are a representative.\nAdherent cell lines were plated at 35×10^4 cells/60 cm^2 dish the day before exposure to compound. Suspension cells were seeded at 25×10^4 cells/mL in a 6 well dish (Falcon) the day of exposure to compound. Mononucleated, T-cell depleted normal bone marrow cells were seeded at 50×10^4 cells/mL in a 6 well dish the day of exposure to compound. Cells were exposed to solvent control or approximate MTT50 and MTT30 concentrations of the compound. After 48 h of exposure to the compound, cells were harvested and fixed with a final concentration of 4% formaldehyde. Fixed cells were stored at −20° C. in 70% ethanol for no more than 5 days. Approximately 10^5 cells were pelleted and labeled with 0.02 mM Biotin-dUTP and 12.5 U TdT enzyme in a 1× reaction buffer (200 mM potassium cacodylate, 25 mM Tris-HCl, 25 μg/mL bovine serum albumin, pH 6.6), 2.5 mM CoCl2 and 0.01 mM dTTP (Roche Molecular Biochemicals, Laval, QC, Canada) for 45 min at 37° C. Samples were washed and incubated in 200 μL of 1:1000 fluorescein isothiocyanate (FITC)-conjugated avidin (Sigma) in 4×SSC, 5% skim milk powder and 0.05% Tween-20 (Sigma). Following 1 h of mixing at room temperature, the samples were washed and resuspended in 500 μL of D-PBS containing 2.5 μg/mL DNase-free RNase (Boehringer Mannheim) and 10 μg/mL PI. Following a 30 min incubation at room temperature, cells were analyzed using a XL-MCL flow cytometer (Coulter Corporation, Miami, Fla.) and a FACScalibar cytometer (Becton Dickinson, San Jose, Calif.). Profiles shown are representative of one experiment."}, "[3]": {"details": "Aspergillus flavus, 100 μg/disk, acetone"}, "[4]": {"details": "Aspergillus niger, 100 μg/disk, acetone"}}, "note": "Like-named read-outs stand apart in the source and are kept apart here.", "data": [{"compound": "CS(C)(=O)=O", "note": "[Compound A, dimethyl sulfone]", "values": [{"measurement": "Diameter (mm) of clear Zone A. flavus", "setting": "Aspergillus flavus; 100 μg/disk, acetone", "result": 0, "unit": "mm"}, {"measurement": "Diameter (mm) of clear Zone A. niger", "setting": "Aspergillus niger; 100 μg/disk, acetone", "result": 0, "unit": "mm"}]}, {"compound": "CSSCS(=O)(=O)c1ccc(C)cc1", "note": "[Compound C, α-p-toluenesulfonyl dimethyl disulphide]", "values": [{"measurement": "Diameter (mm) of clear Zone A. flavus", "setting": "Aspergillus flavus; 25 μg/disk, acetone", "result": 8.0, "unit": "mm"}, {"measurement": "Diameter (mm) of clear Zone A. niger", "setting": "Aspergillus niger; 25 μg/disk, acetone", "result": 10.9, "unit": "mm"}, {"measurement": "Cytotoxicity to the leukemic cells (trypan blue exclusion with MTT activity)", "setting": "leukemic cells [1]", "result": "cytotoxic to the leukemic cells in a dose-dependent manner"}, {"measurement": "Cell cycle effect / apoptosis of leukemic cells (fixed PI and TUNEL)", "setting": "leukemic cells [2]", "result": "undergo apoptosis in all the phases of the cell cycle"}]}, {"compound": "CSCSSC", "note": "[Compound N, 2,3,5-trithiahexane]", "values": [{"measurement": "zone of inhibition at 100 µg/disc", "setting": "Aspergillus flavus; Aspergillus flavus", "result": 0, "unit": "mm"}, {"measurement": "zone of inhibition at 100 µg/disc", "setting": "Aspergillus niger; Aspergillus niger", "result": 0, "unit": "mm"}]}, {"compound": "CCC(=O)OCSSc1ccccc1", "note": "[Compound Q, 1-phenyl-1,2-dithiapropyl propionate]", "values": [{"measurement": "zone of inhibition at 2.5 µg/disc", "setting": "Aspergillus flavus; Aspergillus flavus, 2.5 μg/disk, acetone", "result": 2.3, "unit": "mm"}, {"measurement": "zone of inhibition at 2.5 µg/disc", "setting": "Aspergillus niger; Aspergillus niger, 2.5 μg/disk, acetone", "result": 3.5, "unit": "mm"}]}, {"compound": "c1ccc(SSc2ccccc2)cc1", "note": "[D, diphenyl disulphide]", "values": [{"measurement": "zone of inhibition at 100 µg/disc", "setting": "Aspergillus flavus; [3]", "result": 0, "unit": "mm"}, {"measurement": "zone of inhibition at 100 µg/disc", "setting": "Aspergillus niger; [4]", "result": 0, "unit": "mm"}, {"measurement": "Cytotoxicity to the leukemic cells (trypan blue exclusion with MTT activity)", "setting": "leukemic cells [1]", "result": "cytotoxic to the leukemic cells in a dose-dependent manner"}, {"measurement": "Cell cycle effect / apoptosis of leukemic cells (fixed PI and TUNEL)", "setting": "leukemic cells [2]", "result": "undergo apoptosis in all the phases of the cell cycle"}]}, {"compound": "CS(=O)(=O)CSSc1ccccc1", "note": "[E, 5-phenyl-2,4,5-trithiapentane 2,2-dioxide]", "values": [{"measurement": "zone of inhibition at 25 µg/disc", "setting": "Aspergillus flavus; Aspergillus flavus, 25 μg/disk, acetone", "result": 1.8, "unit": "mm"}, {"measurement": "zone of inhibition at 25 µg/disc", "setting": "Aspergillus niger; Aspergillus niger, 25 μg/disk, acetone", "result": 0.8, "unit": "mm"}, {"measurement": "Cytotoxicity to the leukemic cells (trypan blue exclusion with MTT activity)", "setting": "leukemic cells [1]", "result": "cytotoxic to the leukemic cells in a dose-dependent manner"}, {"measurement": "Cell cycle effect / apoptosis of leukemic cells (fixed PI and TUNEL)", "setting": "leukemic cells [2]", "result": "undergo apoptosis in all the phases of the cell cycle"}]}, {"compound": "CSSCCS(C)(=O)=O", "note": "[F, 2,3,6-trithiaheptane 6,6,-dioxide]", "values": [{"measurement": "Diameter (mm) of clear Zone A. flavus", "setting": "Aspergillus flavus; 100 μg/disk, acetone", "result": 0, "unit": "mm"}, {"measurement": "Diameter (mm) of clear Zone A. niger", "setting": "Aspergillus niger; 100 μg/disk, acetone", "result": 0, "unit": "mm"}, {"measurement": "Cytotoxicity to the leukemic cells (trypan blue exclusion with MTT activity)", "setting": "leukemic cells [1]", "result": "cytotoxic to the leukemic cells in a dose-dependent manner"}, {"measurement": "Cell cycle effect / apoptosis of leukemic cells (fixed PI and TUNEL)", "setting": "leukemic cells [2]", "result": "accumulation of leukemic cells in the G2/M phase of the cell cycle prior to the cells undergoing apoptosis"}]}, {"compound": "CS(=O)(=O)CSCS(C)(=O)=O", "note": "[G, 2,4,6-trithiaheptane 2,2,6,6-tetraoxide]", "values": [{"measurement": "zone of inhibition at 100 µg/disc", "setting": "Aspergillus flavus; [3]", "result": 0, "unit": "mm"}, {"measurement": "zone of inhibition at 100 µg/disc", "setting": "Aspergillus niger; [4]", "result": 0, "unit": "mm"}]}, {"compound": "COC(=O)CSSC", "note": "[H, methyl 3,4-dithiopentanoate]", "values": [{"measurement": "Diameter (mm) of clear Zone A. flavus", "setting": "Aspergillus flavus; 100 μg/disk, acetone", "result": 0, "unit": "mm"}, {"measurement": "Diameter (mm) of clear Zone A. niger", "setting": "Aspergillus niger; 100 μg/disk, acetone", "result": 0, "unit": "mm"}, {"measurement": "Cytotoxicity to the leukemic cells (trypan blue exclusion with MTT activity)", "setting": "leukemic cells [1]", "result": "cytotoxic to the leukemic cells in a dose-dependent manner"}, {"measurement": "Cell cycle effect / apoptosis of leukemic cells (fixed PI and TUNEL)", "setting": "leukemic cells [2]", "result": "accumulation of leukemic cells in the G2/M phase of the cell cycle prior to the cells undergoing apoptosis"}]}, {"compound": "CSSCOC(C)=O", "note": "[I, 2,3-dithiabutyl acetate]", "values": [{"measurement": "zone of inhibition at 100 µg/disc", "setting": "Aspergillus flavus; [3]", "result": 2.3, "unit": "mm"}, {"measurement": "zone of inhibition at 100 µg/disc", "setting": "Aspergillus niger; [4]", "result": 2.3, "unit": "mm"}, {"measurement": "Cytotoxicity to the leukemic cells (trypan blue exclusion with MTT activity)", "setting": "leukemic cells [1]", "result": "cytotoxic to the leukemic cells in a dose-dependent manner"}, {"measurement": "Cell cycle effect / apoptosis of leukemic cells (fixed PI and TUNEL)", "setting": "leukemic cells [2]", "result": "undergo apoptosis in all the phases of the cell cycle"}]}, {"compound": "CSSc1ccc([N+](=O)[O-])cc1", "note": "[M, methyl p-nitrophenyl disulphide]", "values": [{"measurement": "zone of inhibition at 10 µg/disc", "setting": "Aspergillus flavus; Aspergillus flavus, 10 μg/disk, acetone", "result": 4, "unit": "mm"}, {"measurement": "Diameter (mm) of clear Zone A. niger", "setting": "Aspergillus niger; 10 μg/disk, acetone, listed as p-CH3SS(C6H4)NO2", "result": 3.8, "unit": "mm"}, {"measurement": "zone of inhibition at 10 µg/disc", "setting": "Aspergillus niger; Aspergillus niger, 10 μg/disk, acetone", "result": 3.9, "unit": "mm"}]}]}
